Measurements from US11959916B2, “Method, system, and program for supplying immunodynamics-related information” (priority 2017, dated 2024).

System: eosinophil
Test: Eosinophil count in peripheral blood of the prostate cancer subject
Conditions: Claritin in addition to Allegra from July 1, 2016

## CC(C)(C(=O)O)c1ccc(C(O)CCCN2CCC(C(O)(c3ccccc3)c3ccccc3)CC2)cc1 (stereo not shown) [Allegra, fexofenadine]
  eosinophil count in peripheral blood, change in words: started to decrease
